Test system: rats fed cholesterol food
Test: Blood cholesterol lowering effect in rats fed cholesterol food
Type: in vivo, rat
Details: 0.3 mg/kg per administration, oral, twice per day; SD (IGS) male rats; serum 3 hours after final administration
Protocol: In the present Test Example, a blood cholesterol lowering effect on rats fed cholesterol food was evaluated according to the method described in J. Lipid Res., 1995, 36, 1098-1105.
That is, the food containing 0.4% cholesterol and 0.5% bile acid was given to SD (IGS) strain male rats at 7 to 9 weeks of age for 5 days in advance of the test date, to increase blood cholesterol levels. The rats in which the blood cholesterol level had been obviously elevated from the level before loading the cholesterol food were selected as the subjects in the test. Colestimide (brand name: Cholebine 70% granules, supplied from Mitsubishi Tokyo Pharmaceutical Inc.) which is an anion exchange resin drug was suspended in distilled water, and the test compound was dissolved or suspended in distilled water. They were orally administered forcibly twice per day everyday from the starting date (each n=8). The blood was collected from jugular vein 3 hours after the drug administration on the final day of the experiment, and the cholesterol level in serum was measured to examine the effect of the test compound. As a control, another group (n=8) was merely fed cholesterol food, to which distilled water (1 mL/kg) was administered and the same procedure was applied. The total cholesterol value and the HDL cholesterol value were measured using commercially available kits. The value obtained by subtracting the HDL cholesterol value from the total cholesterol value was regarded as an LDL+VLDL cholesterol value.

Structure (SMILES)	LDL + VLDL REDUCTION RATE (%) IN CHOLESTEROL FED RAT MODEL (THERAPEUTIC MODEL)
CCCCC1(CCCC)CS(=O)(=O)c2ccc(N(C)C)cc2C(c2cccc(NC(=S)Nc3ccc(C[N+]45CCC(c6ccccc6)(CC4)CC5)c(C)c3)c2)N1.[Br-] (stereo not drawn) [EXAMPLE P341]	33%
CCCCC1(CCCC)CS(=O)(=O)c2ccc(N(C)C)cc2C(c2cccc(NC(=S)Nc3ccc(C[N+]45CCC(c6ccccc6)(CC4)CC5)cc3F)c2)N1.[Br-] (stereo not drawn) [EXAMPLE P342]	46%
CCCCC1(CCCC)CS(=O)(=O)c2ccc(N(C)C)cc2C(c2cccc(NC(=S)Nc3ccc(C[n+]4ccc(C(C)(C)C)cc4)c(C)c3)c2)N1.[Br-] (stereo not drawn) [EXAMPLE P365]	44%

Molecular target: T1, human IBAT (Homo sapiens, UniProt Q12908)
T1 sequence (Q12908 1-348): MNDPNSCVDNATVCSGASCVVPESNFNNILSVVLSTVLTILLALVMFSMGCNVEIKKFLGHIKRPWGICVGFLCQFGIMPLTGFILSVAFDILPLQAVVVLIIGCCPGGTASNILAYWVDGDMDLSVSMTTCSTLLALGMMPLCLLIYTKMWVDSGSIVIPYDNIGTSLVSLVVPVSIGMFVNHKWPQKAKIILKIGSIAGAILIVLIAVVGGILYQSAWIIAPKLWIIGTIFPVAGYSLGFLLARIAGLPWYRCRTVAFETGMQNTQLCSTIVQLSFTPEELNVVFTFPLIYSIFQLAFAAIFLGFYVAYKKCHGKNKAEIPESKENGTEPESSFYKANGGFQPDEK
Test: In vitro assay using Cos 7 cells, transiently expressed human IBAT
Type: cell-based
Details: [3H]-taurocholate 8 μM uptake, 37° C., 60 minutes
Method in brief: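 Cos 7 cells transfected with human or rat IBAT cDNA were assayed one day later in Hanks buffer with 25 mM glucose and 10 mM HEPES (pH 7.4) containing compound. [^3H]-taurocholate (8 μM final) uptake ran 60 min at 37° C. Cells were washed with 1 mM taurocholate, lysed in NaOH, and counted by liquid scintillation.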

Structure (SMILES)	IC50
CCCCC1(CCCC)CS(=O)(=O)c2ccc(N(C)C)cc2C(c2cccc(NC(=S)Nc3ccc(C[N+]45CCC(c6ccccc6)(CC4)CC5)cc3F)c2)N1.[Br-] (stereo not drawn) [EXAMPLE P342]	15 nM

Same assay, conditions: [3H]-taurocholate 8 μM, 37° C., 60 minutes

Structure (SMILES)	IC50
CCCCC1(CCCC)CS(=O)(=O)c2ccc(N(C)C)cc2C(c2cccc(NC(=S)Nc3ccc(C[N+]45CCC(c6ccccc6)(CC4)CC5)c(C)c3)c2)N1.[Br-] (stereo not drawn) [EXAMPLE P341]	22 nM
CCCCC1(CCCC)CS(=O)(=O)c2ccc(N(C)C)cc2C(c2cccc(NC(=S)Nc3ccc(C[n+]4ccc(C(C)(C)C)cc4)c(C)c3)c2)N1.[Br-] (stereo not drawn) [EXAMPLE P365]	47 nM

Test system: Caco-2 cell
Test: Gastrointestinal toxicity: cytotoxicity against Caco-2 cell (LDH activity)
Type: cell-based, human
Details: 10 μM, 2 hours; LDH activity in medium relative to cell lysis agent = 100%
Protocol: That is, 10,000 cells/well of Caco-2 cells (purchased from ATCC) were seeded in a 96-well plate [MEM-E medium, 10% FBS (Fetal Bovine Serum), 1% NEAA (Non Essential Amino Acid) solution, supplied from Gibco]. After culturing for 48 hours, the test compound diluted with the medium was added to each well. After 2 hours, 50 μL of the medium was collected, and an LDH activity in the medium was measured using an LDH activity measurement kit (CytoTox96 Non-Radioactive Cytotoxicity Assay, supplied from Promega). Defining the LDH activity of the Caco-2 cells treated with a cell lysis agent as being 100%, the relative activity was calculated as a index of the cytotoxicity.

Structure (SMILES)	CELL TOXICITY AGAINST Caco2 10 μM
CCCCC1(CCCC)CS(=O)(=O)c2ccc(N(C)C)cc2C(c2cccc(NC(=S)Nc3ccc(C[N+]45CCC(c6ccccc6)(CC4)CC5)c(C)c3)c2)N1.[Br-] (stereo not drawn) [EXAMPLE P341]	<1%
CCCCC1(CCCC)CS(=O)(=O)c2ccc(N(C)C)cc2C(c2cccc(NC(=S)Nc3ccc(C[N+]45CCC(c6ccccc6)(CC4)CC5)cc3F)c2)N1.[Br-] (stereo not drawn) [EXAMPLE P342]	<1%

Same assay, conditions: 30 μM, 2 hours; LDH activity in medium relative to cell lysis agent = 100%

Structure (SMILES)	CELL TOXICITY AGAINST Caco2 30 μM
CCCCC1(CCCC)CS(=O)(=O)c2ccc(N(C)C)cc2C(c2cccc(NC(=S)Nc3ccc(C[N+]45CCC(c6ccccc6)(CC4)CC5)c(C)c3)c2)N1.[Br-] (stereo not drawn) [EXAMPLE P341]	<1%
CCCCC1(CCCC)CS(=O)(=O)c2ccc(N(C)C)cc2C(c2cccc(NC(=S)Nc3ccc(C[N+]45CCC(c6ccccc6)(CC4)CC5)cc3F)c2)N1.[Br-] (stereo not drawn) [EXAMPLE P342]	<1%

Test system: rats dosed cholic acid
Test: Lowering effect on bile acid concentrations in portal vein blood in rats dosed cholic acid
Type: in vivo, rat
Details: 0.1 mg/kg oral with cholic acid 200 mg/kg; portal vein serum total bile acid 2 hours after; control = 100%; surfactant HCO-60 (##)
Protocol: In the present Test Example, a lowering effect on bile acid concentrations in portal vein blood in rats dosed cholic acid was evaluated according to the method described in Jpn. Pharmacol. Ther., Vol. 24 Supplement, 1996, 103(S-577)-110(S-584).
That is, SD (IGS) strain male rats at 7 to 9 weeks of age were fasted one day before the administration date. […] The blood was collected from the portal vein 2 hours after the forced oral administration, and a total bile acid value in serum was measured to examine the effect of the test compound (n=6). As a control, another group (n=6) merely received cholic acid (200 mg/kg), to which the same procedure was applied. The cholic acid value was measured using the commercially available kit (brand name: Total Bile Acid-Test Wako, supplied form Wako Pure Chemical Industries). Defining the value in the control group to which no test compound had been administered as being 100%, a reduction rate (%) of the bile acid value when a certain amount of the test compound had been administered was calculated.

Structure (SMILES)	BILE ACID REDUCTION RATE (%) IN RAT MODEL WITH CHOLIC ACID LOADING
CCCCC1(CCCC)CS(=O)(=O)c2ccc(N(C)C)cc2C(c2cccc(NC(=S)Nc3ccc(C[N+]45CCC(c6ccccc6)(CC4)CC5)c(C)c3)c2)N1.[Br-] (stereo not drawn) [EXAMPLE P341]	32%
CCCCC1(CCCC)CS(=O)(=O)c2ccc(N(C)C)cc2C(c2cccc(NC(=S)Nc3ccc(C[N+]45CCC(c6ccccc6)(CC4)CC5)cc3F)c2)N1.[Br-] (stereo not drawn) [EXAMPLE P342]	39%
CCCCC1(CCCC)CS(=O)(=O)c2ccc(N(C)C)cc2C(c2cccc(NC(=S)Nc3ccc(C[n+]4ccc(C(C)(C)C)cc4)c(C)c3)c2)N1.[Br-] (stereo not drawn) [EXAMPLE P365]	40%

Molecular target: T2, rat IBAT (Rattus norvegicus, UniProt Q62633)
T2 sequence (Q62633 1-348): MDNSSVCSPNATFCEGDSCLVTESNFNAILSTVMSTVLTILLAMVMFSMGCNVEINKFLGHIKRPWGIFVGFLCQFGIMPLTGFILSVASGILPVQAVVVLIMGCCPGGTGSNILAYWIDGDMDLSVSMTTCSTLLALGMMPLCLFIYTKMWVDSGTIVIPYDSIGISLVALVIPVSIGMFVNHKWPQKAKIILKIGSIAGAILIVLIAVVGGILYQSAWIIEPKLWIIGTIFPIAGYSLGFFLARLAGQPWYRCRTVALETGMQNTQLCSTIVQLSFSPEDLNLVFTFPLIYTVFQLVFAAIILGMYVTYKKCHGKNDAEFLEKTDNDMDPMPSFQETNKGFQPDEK
Test: In vitro assay using Cos 7 cells, transiently expressed rat IBAT
Type: cell-based
Details: [3H]-taurocholate 8 μM uptake, 37° C., 60 minutes
Protocol: In the present Test Example, an in vitro assay of compounds using Cos 7 cells as to inhibitory activity on transiently expressed human IBAT or rat IBAT transporter was performed according to the method described in Am. J. Physiol., 274, G157-169.
That is, […] cells/well of Cos 7 cells were seeded in a 24-well plate, and after one day, the cells were transfected with 0.3 μg/well of cDNA of human IBAT or rat IBAT using FuGENE6 (supplied from Roche). After culturing for one day after the transfection, the cells were washed once with the assay buffer, i.e., Hanks buffer containing 25 mM glucose and 10 mM HEPES (pH 7.4). The assay buffer was then replaced with the assay buffer containing the test compound. [^3H]-Taurocholate at a final concentration of 8 μM was added thereto and incubated at 37° C. for 60 minutes so that [^3H]-taurocholate was taken into Cos 7 cells by the action of human IBAT or rat IBAT. The cells were washed twice with the assay buffer containing 1 mM taurocholate, and subsequently lysed with 0.2 M NaOH to stop the reaction. The cell lysate was added to 4 mL of liquid scintillation cocktail, which was then thoroughly vortexed. Then the radioactivity was measured using the liquid scintillation counter.

Structure (SMILES)	IC50
CCCCC1(CCCC)CS(=O)(=O)c2ccc(N(C)C)cc2C(c2cccc(NC(=S)Nc3ccc(C[N+]45CCC(c6ccccc6)(CC4)CC5)cc3F)c2)N1.[Br-] (stereo not drawn) [EXAMPLE P342]	4.8 nM

Same assay, conditions: [3H]-taurocholate 8 μM, 37° C., 60 minutes

Structure (SMILES)	IC50
CCCCC1(CCCC)CS(=O)(=O)c2ccc(N(C)C)cc2C(c2cccc(NC(=S)Nc3ccc(C[N+]45CCC(c6ccccc6)(CC4)CC5)c(C)c3)c2)N1.[Br-] (stereo not drawn) [EXAMPLE P341]	4.3 nM
